Among the data in PubChem BioAssay AID1159536 (DiRusso Lab, Biochemistry Department, University of Nebraska, 2015) are EC50 values, retold here.

Results filed as inconclusive are left out. Calls of active or inactive are those of the source. How the calls were made is not given here.

The subject of this assay is Chlamydomonas reinhardtii, Nile Red lipid fluorescence, 72 h. Description: compounds raising TAG storage in Chlamydomonas – qHTS, Chlamydomonas reinhardtii, dose response (AID 1159536).

`CN1CCCN(Cc2ccc([N+](=O)[O-])o2)CC1`: the EC50 – broadly, the midpoint of the concentration-response curve – was 15 µM (inactive).
The figure for `COc1ccc(OCCCN2CCCCC2)cc1` is 13.8 µM; for `Cc1ccc(NC(=O)CC(C)C)c(NC(=O)CC(C)C)c1` it is 7.89 µM (inactive).
The figure for `Fc1ccc(N2CCN(Cc3ccccc3)CC2)cc1` is 1.37 µM.
Consider `COc1ccccc1N1CCN(C2CCN(Cc3cccc(C)c3)CC2)CC1`, for which the EC50 was 10.4 µM.
Turning to `CN1CCC(N(C)Cc2cccc(Oc3ccccc3)c2)CC1`, the EC50 was 10.1 µM.
With `Clc1ccc(OCCOCCN2CCOCC2)c(Br)c1` the figure was 7.9 µM; with `C=CCNCC(=O)NC12CC3CC(CC(C3)C1)C2`, 2.81 µM; with `C=C(C)CN(CC)C(=O)C1CCN(CC2CC=CCC2)CC1` (stereo not drawn), 2.73 µM.
The figure for `CSc1ccc(CN2CCSCC2)cc1` is 10.5 µM (inactive); for `CC(C)NCC(=O)NC12CC3CC(CC(C3)C1)C2` it is 0.638 µM; for `CCN1CCC(N2CCN(c3ccc(Cl)cc3)CC2)CC1` it is 2.59 µM.
In the case of `COc1ccccc1N1CCN(Cc2ccc(Cl)cc2)CC1`, the EC50 was 1.61 µM.
The figure for `COc1ccccc1N1CCN(C2CCN(Cc3cccc(Cl)c3)CC2)CC1` is 10.1 µM.
The figure for `CN1CCN(CCOc2ccc(C(C)(C)c3ccccc3)cc2)CC1` is 2.37 µM (inactive); for `CCc1ccc(CN2CCN(CCO)CC2)cc1` it is 7.63 µM; for `CC(C)(C)c1csc(NC(=O)c2ccc(N3CCOCC3)c([N+](=O)[O-])c2)n1` it is 2.66 µM.
With `COc1cc(C)c(CN2CCCN(C)CC2)cc1C` the figure was 10.3 µM; with `C/C(=C\c1ccccc1)CN1CCN(C)CC1`, 1.01 µM.
With `Fc1ccccc1N1CCN(CC2CCCCC2)CC1`, the EC50 is 10.5 µM.
With `CCSc1ccc(C(=O)Nc2ccc(Cc3ccncc3)cc2)cc1[N+](=O)[O-]` the figure was 2.64 µM; with `C1=CC2CC1CC2CN1CCN(c2ccccc2)CC1` (stereo not drawn), 0.0846 µM.
For `CCC1CCC(N2CCN(CC)CC2)CC1` (stereo not drawn), the EC50 was 2.48 µM.
The figure for `CC1CCCC(N2CCN(Cc3ccccc3)CC2)C1` (stereo not drawn) is 0.811 µM; for `COc1cc(CN2CCN(Cc3ccccc3)CC2)cc(OC)c1` it is 8.98 µM.
With `COc1ccc(C(=O)NCCN2CCOCC2)cc1[N+](=O)[O-]` the figure was 5.99 µM (inactive); with `CN(CC(O)COc1ccc(Br)cc1)C1CCCCC1` (stereo not drawn), 6.83 µM; with `Cc1ccc(C(=O)Nc2ccccc2C(=O)NC(C)C)cc1[N+](=O)[O-]`, 0.635 µM (inactive).
With `COc1ccc(CN(C)C2CCCCC2)c(C)c1C` the figure was 0.608 µM; with `Cc1ccc(C)c(N2CCN(Cc3ccc([N+](=O)[O-])cc3)CC2)c1`, 1.29 µM.
In the case of `C(=C\c1ccccc1)/CN1CCN(C2CCc3ccccc3C2)CC1` (stereo not drawn), the EC50 is 9.92 µM.
With `CCC(C)c1ccccc1OCCCCN1CCCC1` (stereo not drawn) the figure was 2.68 µM.
The figure for `CC(C)=CCC[C@H](C)CCN1CCN(C)CC1` is 10 µM; for `CN1CCC(N(C)Cc2cc(Cl)ccc2O)CC1` it is 2.56 µM.
The figure for `CN(C)c1ccc(NC(=O)Nc2ccc3nc(-c4ccccn4)c(-c4ccccn4)nc3c2)cc1` is 1.33 µM; for `C=CCc1cccc(C)c1OCCCN1CCN(C)CC1` it is 1.97 µM.
Turning to `CCN(CC)CC(=O)Nc1ccc(Br)cc1`, the EC50 is 10.6 µM.
With `CC(CNC(=O)c1ccc(C(C)(C)C)cc1)CN(C)C` (stereo not drawn) the figure was 10.3 µM; with `O=C1CC(N2CCN(Cc3ccc4c(c3)OCO4)CC2)C(=O)N1CCc1ccccc1` (stereo not drawn), 2.63 µM; with `Cc1ccc(C(=O)c2ccc(N3CCN(C)CC3)c([N+](=O)[O-])c2)cc1`, 2.59 µM (inactive).
With `Cc1cc(C)c(NC(=O)COc2ccccc2[N+](=O)[O-])c(C)c1` the figure was 3.13 µM (inactive); with `Clc1ccc(OCCCCN2CCOCC2)c(Br)c1`, 0.854 µM; with `c1cc2c(cc1CNC1CCCC1)OCO2`, 10.7 µM.
Turning to `OC(COc1ccc(Cl)cc1Cl)CN1CCN(Cc2ccccc2)CC1` (stereo not drawn), the EC50 is 7.67 µM.
With `COc1ccc(OC)c(CNCCc2ccc([N+](=O)[O-])cc2)c1` the figure was 0.646 µM.
With `COc1cc2c(cc1OC)CN(Cc1ccc(F)cc1)CC2` the figure was 9.96 µM.
Regarding `COc1ccc(CCN(C)Cc2ccc([N+](=O)[O-])cc2)cc1OC`, the EC50 was 10 µM.
The figure for `COc1ccc(CNC2CCSC2)cc1` (stereo not drawn) is 0.314 µM.
As for `COc1ccccc1N1CCN(Cc2ccc(C)cc2)CC1`, the EC50 was 3.65 µM.
With `CCN1CCN(C2CCC(c3ccccc3)CC2)CC1` (stereo not drawn) the figure was 1.77 µM; with `O=C(Nc1ccc(S(=O)(=O)N2CCCC2)cc1)c1ccc(Cl)cc1Cl`, 2.32 µM (inactive).
With `C/C=C(\C)CN1CCN(C/C=C/c2ccccc2)CC1` the figure was 1.28 µM; with `Cc1ccc(C)c(N2CCN(CC3CC4C=CC3C4)CC2)c1` (stereo not drawn), 30.4 µM.
As for `Oc1ccccc1CNCCC12CC3CC(CC(C3)C1)C2`, the EC50 is 2.49 µM (inactive).
With `C=CCn1c(SCC(=O)O)nnc1-c1ccc([N+](=O)[O-])cc1`, the EC50 is 13.6 µM (inactive).
In the case of `Cc1ccc(OCC(O)CN(C)C2CCCCC2)cc1C` (stereo not drawn), the EC50 was 4.42 µM.
The figure for `O=C(c1ccc([N+](=O)[O-])cc1)N1CCN(CC2CC3C=CC2C3)CC1` (stereo not drawn) is 6.07 µM.
With `O=C(NCCc1ccc(Cl)cc1)C(=O)Nc1nccs1` the figure was 10.2 µM (inactive); with `CC(C)C(NS(=O)(=O)c1cccs1)C(C)C`, 21.6 µM (inactive); with `O=C(Nc1cccnc1)c1ccc(S(=O)(=O)c2ccc(Cl)cc2)cc1`, 6.72 µM (inactive).
With `CCOc1ccc(C(=O)NCCNC(=O)c2ccc(OCC)cc2)cc1` the figure was 19.9 µM (inactive); with `OCCN1CCN(C2C3CC4CC(C3)CC2C4)CC1` (stereo not drawn), 4.25 µM; with `Cc1ccc(CN2CCC(C(=O)N3CCN(c4ccccc4F)CC3)CC2)o1`, 7.9 µM (inactive).
As for `CN(c1ccc(C(=O)NC2CCCCCC2)cc1)S(=O)(=O)c1ccccc1`, the EC50 was 4.98 µM.
With `COc1cc(C(=O)Nc2nc3c(s2)CCCC3)cc(OC)c1OC` the figure was 0.379 µM (inactive).
With `CCC(C)N1CCN(Cc2ccc([N+](=O)[O-])cc2)CC1` (stereo not drawn) the figure was 10.5 µM; with `CCc1ccc(CN2CCC(C(=O)N(CC)Cc3ccccc3)CC2)cc1`, 0.708 µM; with `Cc1cccc(OCCCCN2CCOCC2)c1`, 2.69 µM.
The figure for `CCC(C)c1ccccc1OCCOCCN1CCOCC1` (stereo not drawn) is 13.1 µM; for `CC1CN(CC(O)COc2ccc(C(C)(C)C)cc2)CC(C)O1` (stereo not drawn) it is 9.95 µM.
Take `CN1CCN(c2ccc([N+](=O)[O-])c(N3CCCCC3)c2)CC1`: the EC50 is 10.1 µM.
The figure for `CCc1ccc(OCCOCCN2CCOCC2)cc1` is 10.1 µM; for `Cc1c(NC(=O)c2c(F)c(F)c(F)c(F)c2F)c(=O)n(-c2ccccc2)n1C` it is 19 µM (inactive).
`c1ccc(CN2CCN(C3CCCCC3)CC2)cc1`: the EC50 was 9.9 µM.
The figure for `C=CCN1C(=O)C(=O)c2cc(Br)ccc21` is 5.89 µM.
The figure for `Cc1ccc(OCCOCCN2CCOCC2)c([N+](=O)[O-])c1` is 2.7 µM; for `COc1cc(C(=O)Nc2ccc(S(=O)(=O)Nc3ncccn3)cc2)cc(OC)c1OC` it is 30.9 µM (inactive).
With `COc1cccc(N2CCN(Cc3ccc([N+](=O)[O-])cc3)CC2)c1` the figure was 0.667 µM; with `Brc1ccc2ncnc(N3CCN(Cc4ccccc4)CC3)c2c1`, 2.02 µM; with `CCN1CCN(C2CCC(C)CC2)CC1` (stereo not drawn), 9.97 µM.
As to `c1coc(CN2CCN(C3CCCCCC3)CC2)c1`, the EC50 is 4.76 µM.
The figure for `CCc1ccc(CN2CCN(c3ccccc3C)CC2)cc1` is 1.33 µM (inactive); for `CCN(CC)c1cc(C)nc(N)n1` it is 2.53 µM (inactive); for `C=CCn1c(SCC(=O)NCCc2ccccc2)nnc1-c1ccc(Cl)cc1Cl` it is 4.05 µM.
With `Cc1cc(C)c(OCCCCN2CCNCC2)c(C)c1` the figure was 2.62 µM; with `Cc1ccc(NC(=O)CSc2nnc(-c3ccc(Cl)cc3Cl)n2N)c(C)c1`, 2.46 µM (inactive).
`O=C(Nc1ccc([N+](=O)[O-])cc1)c1cccc(Cl)c1Cl`: the EC50 was 2.35 µM (inactive).
The figure for `Cc1cc(OCCCCN2CCN(C)CC2)cc(C(C)C)c1` is 1.92 µM; for `COc1cccc(N2CCN(Cc3ccsc3)CC2)c1` it is 10 µM.
`O=[N+]([O-])c1ccc(CN2CCN(Cc3ccccc3F)CC2)cc1`: the EC50 was 8.4 µM.
With `Cc1ccc(C(=O)c2ccc(N3CCN(C)CC3)c(F)c2)cc1C` the figure was 13.4 µM (inactive); with `CCOc1ccc(CN2CCN(c3ccccc3OC)CC2)cc1`, 1.32 µM; with `C(#CCN1CCCCC1)COc1ccccc1`, 4.84 µM.
For the compound `Cc1ccc(CN(C)C2CCN(C)CC2)s1`, the EC50 was 10.2 µM.
The figure for `Fc1ccc(CN2CCN(c3ccccc3Cl)CC2)cc1` is 1.4 µM; for `CCOc1ccccc1C(=O)NC1CC1` it is 26.5 µM (inactive).
With `CCOc1ccc(CN2CCN(c3ccc(F)cc3)CC2)cc1` the figure was 0.241 µM; with `Cc1ccsc1/C=C(\C#N)c1nc(-c2ccc([N+](=O)[O-])cc2)cs1`, 14.9 µM (inactive).
With `O=C(c1ccc(CN2CCc3ccccc3C2)cc1)N1CCN(c2ccccc2F)CC1` the figure was 6.04 µM; with `CC(C)c1ccc(CN2CCN(C)CC2)cc1`, 3.5 µM.
On to `Cc1ccc(C(=O)NC(C)C2CC3CCC2C3)s1` (stereo not drawn), for which the EC50 is 15.3 µM (inactive).
The figure for `O=C(O)CCSCC(=O)c1ccc(NS(=O)(=O)c2ccccc2)cc1` is 30.6 µM (inactive); for `CC(=O)NC1=C(N2CCN(Cc3ccccc3)CC2)C(=O)c2ccccc2C1=O` it is 14.3 µM (inactive).
With `c1ccc(CCc2nc(-c3ccncc3)no2)cc1` the figure was 5.02 µM; with `CCOc1ccc(C2=CSC3=NCCN23)cc1`, 13.7 µM (inactive).
In the case of `COc1cccc(N2CCN(C3CCCC(C)C3)CC2)c1` (stereo not drawn), the EC50 was 6.34 µM.
Consider `Cc1ccc(CN2CCCC(CO)C2)cc1` (stereo not drawn), for which the EC50 was 10.1 µM.
Consider `C1=CC2CC1CC2CN1CCN(Cc2ccco2)CC1` (stereo not drawn), for which the EC50 is 2.52 µM.
